Assay results: US20260193229A1, “BRISC DEUBIQUITINATING ENZYME INHIBITORS” (THE TRUSTEES OF THE UNIVERSITY OF PENNSYLVANIA, priority 2022, published 2026)

Legend:
BRISC = target: T1, BRISC (Homo sapiens, UniProt P46736+Q15018); assay: BRISC DUB inhibition assay with quenched K63-linked di-ubiquitin substrate (TAMRA fluorescence); format: biochemical; conditions: Table 1, Activity Range Table
T1 construct: made in house; host or cells: insect cells (MultiBac baculovirus)
Procedure: High throughput screening. A baculoviral expression system was established to purify milligram quantities of the entire BRISC complex from insect cells. The MultiBac system was used to clone all 4 components of the BRISC complex into one vector which was then packaged into the baculovirus genome using the methods described in Zeqiraj et al., 2015 (Mol. Cell).
The assay buffer included: 50 mM HEPES-NaOH, pH 7.0; 100 mM NaCl; 1 mM DTT; 1 mg/ml BSA; and 0.03% Brij-35. BRISC was assayed at 1 nM (final concentration) with the substrate at 500 nM (final concentration). The final reaction volume was 20 μl in each 384 plate well (Corning, #3573; black, low flange, flat bottom) with a final concentration of compounds of 10 μM.
A 5 ml of enzyme solution with BRISC at 2 nM in assay buffer was made by adding 10 μl of BRISC working stock (1 μM) to 5 ml of assay buffer. A 5 ml of substrate solution was made with […] of K63-diUbiquitin (made in-house) plus […] of IQF K63-diUbiquitin by adding the appropriate volumes of diUbiquitins to 5 ml of assay buffer. 45 μL of BRISC (enzyme solution) was dispensed into columns 1-11 of a 96 well PCR plate (skirted). Buffer was only dispensed in column 12 (no enzyme control). 45 μl of substrate solution was dispensed into columns 1-12 of a 96 well PCR plate (skirted). The plate was spun down at 3000 rpm (bench top centrifuge) at room temp for 2 min to remove any air bubbles. Using a Biomek FX, liquid handler (Bekman), 10 μl of BRISC (enzyme solution) was dispensed into the 4 quadrants of a 384 well plate. 200 nl of compounds was dispensed into each well of the 384 plates using the pin tool (columns A and B usually contain DMSO only, and serve as controls), and the plates were incubated for 10-15 minutes at room temperature. 10 μl of substrate solution was dispensed into the 4 quadrants of the 384 well plate. The plate was then incubated for 30 min at room temperature in the dark and read with settings suitable for detecting TAMRA fluorescence (excitation wavelength of 540 nm and emission wavelength of 580 nm). A PHERAStar plate (BMG labtech) reader was used with a gain value of 570. The Intensity/Background (I/Bg), defined as [(Average of columns 1 and 2; DMSO controls)/(Average of columns 23 and 24; no enzyme controls)], were about 5.
The activities of the compounds disclosed in the present disclosure in inhibiting BRCC36 enzyme activity was measured in accordance with the method disclosed in Example 2.

USP2 = target: T2, USP2 (Homo sapiens, UniProt O75604); assay: Selectivity counter-assay against USP2; format: biochemical; conditions: FIG. 6C / 7A
T2 sequence (O75604 1-605): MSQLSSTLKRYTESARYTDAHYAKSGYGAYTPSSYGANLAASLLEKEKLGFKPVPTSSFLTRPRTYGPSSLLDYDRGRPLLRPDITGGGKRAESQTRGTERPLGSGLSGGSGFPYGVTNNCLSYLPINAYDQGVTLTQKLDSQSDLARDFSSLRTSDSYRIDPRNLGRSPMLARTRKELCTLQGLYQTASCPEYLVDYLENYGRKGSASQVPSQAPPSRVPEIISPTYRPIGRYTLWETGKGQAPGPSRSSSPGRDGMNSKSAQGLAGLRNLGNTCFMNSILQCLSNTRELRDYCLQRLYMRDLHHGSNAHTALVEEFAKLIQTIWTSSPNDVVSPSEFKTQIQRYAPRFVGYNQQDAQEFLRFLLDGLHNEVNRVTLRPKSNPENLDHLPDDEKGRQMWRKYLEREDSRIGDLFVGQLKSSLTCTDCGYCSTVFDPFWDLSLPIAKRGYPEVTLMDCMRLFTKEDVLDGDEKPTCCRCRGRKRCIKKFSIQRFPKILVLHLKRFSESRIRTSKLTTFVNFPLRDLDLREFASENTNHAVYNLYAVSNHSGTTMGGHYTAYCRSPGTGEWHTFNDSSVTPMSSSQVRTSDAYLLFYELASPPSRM

trypsin = assay: Selectivity counter-assay against trypsin; format: biochemical; conditions: FIG. 6C / 7A
[1] = target: ARISC (BRCC36-Abraxas-BRCC45-MERIT40) (Homo sapiens, UniProt P46736); assay: Cross-reactivity against ARISC holoenzyme; format: biochemical; conditions: FIG. 7A
[2] = target: RAP80 (BRCC36-Abraxas-BRCC45-MERIT40-RAP80) complex (Homo sapiens, UniProt P46736); assay: Cross-reactivity against RAP80 holoenzyme; format: biochemical; conditions: FIG. 7A
BRCC36 enzyme activity = target: T3, BRCC36 enzyme activity (Homo sapiens, UniProt P46736+Q15018); assay: Mode of inhibition: increasing di-Ubiquitin substrate and free Zn2+; format: biochemical
T3 construct: made in house; host or cells: insect cells (MultiBac baculovirus)

human cells = assay: Cellular toxicity in human cells; format: cell-based; conditions: 5 μM

| IC50 (BRISC) [µM] | selectivity for BRISC versus USP2 (USP2) | cross reactivity to ARISC holoenzyme [1] | cross reactivity to RAP80 holoenzyme [2] | mode of inhibition (BRCC36 enzyme activity) | SMILES | selectivity for BRISC versus trypsin (trypsin) | cellular toxicity (human cells) |
| --- | --- | --- | --- | --- | --- | --- | --- |
| 1 to 10 | selectivity for BRISC | no significant cross reactivity | no significant cross reactivity | non-competitive inhibitors | O=C(NC1CCNCC1)c1nn(C(=O)c2c(Cl)cccc2Cl)cc1NC(=O)c1c(Cl)cccc1Cl [Compound 1, 4-(2,6-dichlorobenzamido)-1-(2,6-dichlorobenzoyl)-N-(piperidin-4-yl)-1H-pyrazole-3-carboxamide] | selectivity for BRISC | – |
| 1 to 10 | – | – | – | – | CS(=O)(=O)n1cc(NC(=O)c2c(Cl)cccc2Cl)c(C(=O)NC2CCNCC2)n1 [Compound 2, 4-(2,6-dichlorobenzamido)-1-(methylsulfonyl)-N-(piperidin-4-yl)-1H-pyrazole-3-carboxamide] | – | no detectable cellular toxicity |
